From patent US11155517B2, “4-substituted phenylamine derivatives and their use to protect crops by fighting undesired phytopathogenic micoorganisms” (PI INDUSTRIES LTD., priority 2016, dated 2021)

How the values were obtained:
Format in all cases: cell-based
Colletotrichum capsici = Colletotrichum capsici (anthracnose) in vitro test, radial growth on Potato Dextrose Agar; conditions: Colletotrichum truncatum, 168 h; 300 ppm; seven days, 25° C.; read-out: % control compared to the untreated check (radial growth)
Septoria lycopersici = Septoria lycopersici (leaf spot of tomato) in vitro test, radial growth on Potato Dextrose Agar; conditions: 168 h, seven days, 25° C., read-out: % control compared to the untreated check (radial growth)
Alternaria solani = Alternaria solani (early blight of tomato/potato) in vitro test, radial growth on Potato Dextrose Agar; conditions: 168 h, 300 ppm, seven days, 25° C., read-out: % control compared to the untreated check (radial growth)
Fusarium culmorum = Fusarium culmorum (foot rot of cereals) in vitro test, radial growth on Potato Dextrose Agar; conditions: Fusarium culmorum, 168 h, read-out: % control compared to the untreated check (radial growth)
Pyricularia oryzae = assay: microbe, parasite or virus in culture; conditions: 168 h, read-out: % control compared to the untreated check (radial growth)
Rhizoctonia solani = Rhizoctonia solani (rice sheath blight/potato black scurf) in vitro test, radial growth on Potato Dextrose Agar; conditions: 168 h, 300 ppm, seven days, 25° C., read-out: % control compared to the untreated check (radial growth)
Botrytis cinerea = Botrytis cinerea (gray mold) in vitro test, radial growth on Potato Dextrose Agar; conditions: 168 h, 300 ppm, seven days, 22° C., read-out: % (control) compared to the untreated check (radial growth)

Row | SMILES | inhibition of growth at 300 ppm (Colletotrichum capsici) | inhibition of growth at 300 ppm (Septoria lycopersici) | inhibition of growth at 300 ppm (Alternaria solani) | inhibition of growth at 300 ppm (Fusarium culmorum) | inhibition of growth at 300 ppm (Pyricularia oryzae) | inhibition of growth at 300 ppm (Rhizoctonia solani) | inhibition of growth at 300 ppm (Botrytis cinerea)
1 | CCN(C)C=Nc1cc(C)c(Cc2cccc(OC)c2)cc1C [Compound 45, N-ethyl-N′-(4-(3-methoxybenzyl)-2,5-dimethylphenyl)-N-methylformimidamide] | > 80% | > 70% | > 75% | 75% | > 75% | > 80% | > 80%
2 | CCN(C)C=Nc1cc(C)c(Cc2cccc(C(F)(F)F)c2)cc1C [Compound 46, N′-(2,5-dimethyl-4-(3-(trifluoromethyl)benzyl)phenyl)-N-ethyl-N-methylformimidamide] | > 80% | > 70% | > 75% | 75% | > 75% | > 80% | > 80%
3 | CCN(C)C=Nc1cc(C)c(Cc2cccc(C#N)c2)cc1C [Compound 47, N′-(4-(3-cyanobenzyl)-2,5-dimethylphenyl)-N-ethyl-N-methylformimidamide] | > 80% | > 70% | > 75% | 75% | > 75% | > 80% | > 80%
4 | CCN(C)C=Nc1cc(C)c(Cc2cccc([N+](=O)[O-])c2)cc1C [Compound 49, N′-(2,5-dimethyl-4-(3-nitrobenzyl)phenyl)-N-ethyl-N-methylformimidamide] | > 80% | > 70% | > 75% | 75% | > 75% | > 80% | > 80%
5 | CCN(C)C=Nc1cc(C)c(Cc2cc(F)cc(C(F)(F)F)c2)cc1C [Compound 52, N-ethyl-N′-(4-(3-fluoro-5-(trifluoromethyl)benzyl)-2,5-dimethylphenyl)-N-methylformimidamide] | > 80% | > 70% | > 75% | 75% | > 75% | > 80% | > 80%
6 | CCN(C)C=Nc1cc(C)c(Cc2cc(C(F)(F)F)ccc2C)cc1C [Compound 53, N′-(2,5-dimethyl-4-(2-methyl-5-(trifluoromethyl)benzyl)phenyl)-N-ethyl-N-methylformimidamide] | > 80% | > 70% | > 75% | 75% | – | – | > 80%
7 | CCN(C)C=Nc1cc(C)c(Cc2ccc(OC)cc2)cc1C [Compound 54, N-ethyl-N′-(4-(4-methoxybenzyl)-2,5-dimethylphenyl)-N-methylformimidamide] | > 80% | > 70% | > 75% | 75% | > 75% | > 80% | > 80%
8 | Cc1cc(N=CN2CCOCC2)c(C)cc1Cc1ccccc1F [Compound 55, N-(4-(2-fluorobenzyl)-2,5-dimethylphenyl)-1-morpholinomethanimine] | – | > 70% | > 75% | 75% | > 75% | > 80% | > 80%
9 | Cc1cc(N=CN2CCOCC2)c(C)cc1Cc1ccc(F)cc1 [Compound 56, N-(4-(4-fluorobenzyl)-2,5-dimethylphenyl)-1-morpholinomethanimine] | – | > 70% | > 75% | 75% | > 75% | > 80% | > 80%
10 | Cc1cc(N=CN2CCCCC2)c(C)cc1Cc1ccccc1F [Compound 58, N-(4-(2-fluorobenzyl)-2,5-dimethylphenyl)-1-(piperidin-1-yl)methanimine] | > 80% | > 70% | > 75% | 75% | > 75% | > 80% | > 80%
11 | Cc1cc(N=CN2CCCCC2)c(C)cc1Cc1ccc(F)cc1 [Compound 60, N-(4-(4-fluorobenzyl)-2,5-dimethylphenyl)-1-(piperidin-1-yl)methanimine] | > 80% | > 70% | > 75% | 75% | > 75% | > 80% | > 80%
12 | Cc1cc(N=CNC(C)C)c(C)cc1Cc1ccccc1F [Compound 66, N′-(4-(2-fluorobenzyl)-2,5-dimethylphenyl)-N-isopropylformimidamide] | > 80% | > 70% | > 75% | 75% | > 75% | > 80% | > 80%
13 | Cc1cc(N=CNC(C)C)c(C)cc1Cc1ccccc1Cl [Compound 67, N′-(4-(2-chlorobenzyl)-2,5-dimethylphenyl)-N-isopropylformimidamide] | > 80% | > 70% | > 75% | 75% | > 75% | > 80% | > 80%
14 | CCN(C)C=Nc1cc(C)c(Cc2ccc(OC)cc2)cc1Cl [Compound 69, N′-(2-chloro-4-(4-methoxybenzyl)-5-methylphenyl)-N-ethyl-N-methylformimidamide] | > 80% | > 70% | > 75% | 75% | > 75% | > 80% | > 80%
15 | CCN(C)C=Nc1cc(C)c(Cc2cccc(C#N)c2)cc1Cl [Compound 72, N′-(2-chloro-4-(3-cyanobenzyl)-5-methylphenyl)-N-ethyl-N-methylformimidamide] | > 80% | > 70% | > 75% | 75% | > 75% | > 80% | –
16 | CCN(C)C=Nc1cc(C)c(Cc2cccc(N(C)C)c2)cc1C [Compound 111, N′-(4-(3-(dimethylamino)benzyl)-2,5-dimethylphenyl)-N-ethyl-N-methylformimidamide] | > 80% | > 70% | > 75% | 75% | > 75% | > 80% | –
17 | CCN(C)C=Nc1cc(C)c(/C(=N\C)c2ccccc2C)cc1C [Compound 215, N′-(2,5-dimethyl-4-((Z)-(methylimino)(o-tolyl)methyl)phenyl)-N-ethyl-N-methylformimidamide] | > 80% | > 70% | > 75% | 75% | > 75% | > 80% | –
18 | CCN(C)C=Nc1cc(C)c(Cc2cccc(OC(F)(F)F)c2)cc1C1CC1 [Compound 224, N′-(2-cyclopropyl-5-methyl-4-(3-(trifluoromethoxy)benzyl)phenyl)-N-ethyl-N-methylformimidamide] | – | > 70% | > 75% | 75% | > 75% | > 80% | > 80%
19 | CCN(C)C=Nc1cc(C#N)c(Cc2cccc(F)c2)cc1C [Compound 250, N′-(5-cyano-4-(3-fluorobenzyl)-2-methylphenyl)-N-ethyl-N-methylformimidamide] | – | > 70% | > 75% | 75% | > 75% | > 80% | > 80%
20 | CCN(C)C=Nc1cc(C#N)c(Cc2ccc(C)cc2)cc1C [Compound 252, N′-(5-cyano-2-methyl-4-(4-methylbenzyl)phenyl)-N-ethyl-N-methylformimidamide] | – | > 70% | > 75% | 75% | > 75% | > 80% | > 80%
21 | CCN(C)C=Nc1cc(Cl)c(Cc2cccc(C)c2)cc1C [Compound 260, N′-(5-chloro-2-methyl-4-(3-methylbenzyl)phenyl)-N-ethyl-N-methylformimidamide] | > 80% | > 70% | > 75% | 75% | > 75% | – | > 80%
22 | CCN(C)C=Nc1ccc(Cc2ccccc2C)c2ccccc12 [Compound 271, N-ethyl-N-methyl-N′-(4-(2-methylbenzyl)naphthalen-1-yl)formimidamide] | – | > 70% | > 75% | 75% | > 75% | > 80% | > 80%
